In patent publication US4839350A, “Cephalosporin compounds and the production thereof” (Meiji Seika Kaisha, Ltd., priority 1984, dated 1989):
Where a name gives a salt, the structure may show the parent alone. Read-outs that look alike come from different tables or passages of the source.

Key:
Type in all cases: cell-based
[1] = tested on: Pseudomonas aeruginosa MB 3833; test: MIC by agar-dilution method, Pseudomonas aeruginosa MB 3833
Description: (§1) The compounds of this invention are all novel compounds.

[2] = tested on: Staphylococcus aureus 209P JC-1; test: MIC by agar-dilution method, Staphylococcus aureus 209P JC-1
Description: as §1

Proteus vulgaris GN 76 = test: MIC by agar-dilution method, Proteus vulgaris GN 76
Description: as §1

[3] = tested on: Escherichia coli NIHJ JC-2; test: MIC by agar-dilution method, Escherichia coli NIHJ JC-2
Description: as §1

[4] = tested on: Salmonella typhimurium LT-2; test: MIC by agar-dilution method, Salmonella typhimurium LT-2
Description: as §1

[5] = tested on: Klebsiella pneumoniae PCI 602; test: MIC by agar-dilution method, Klebsiella pneumoniae PCI 602
Description: as §1

Proteus rettgeri GN 624 = test: MIC by agar-dilution method, Proteus rettgeri GN 624
Description: as §1

[6] = tested on: Serratia marcescens No. 1; test: MIC by agar-dilution method, Serratia marcescens No. 1
Description: as §1

Proteus mirabilis GN 79 = test: MIC by agar-dilution method, Proteus mirabilis GN 79
Description: as §1

[7] = tested on: Staphylococcus aureus Smith; test: MIC by agar-dilution method, Staphylococcus aureus Smith
Description: as §1

[8] = Salmonella enterica, read-out: MIC.
[9] = Providencia rettgeri, GN624, read-out: MIC.

Row | Compound | MIC ([1]; MB3833, read-out: MIC.) [µg/mL] | MIC ([2]; read-out: MIC.) [µg/mL] | MIC (Proteus vulgaris GN 76; GN76, read-out: MIC.) [µg/mL] | MIC ([3]; NIHJJC2, read-out: MIC.) [µg/mL] | MIC [4, 8] [µg/mL] | MIC ([5]; PCI602, read-out: MIC.) [µg/mL] | MIC (Proteus rettgeri GN 624; [9]) [µg/mL] | MIC ([6]; read-out: MIC.) [µg/mL] | MIC (Proteus mirabilis GN 79; GN79, read-out: MIC.) [µg/mL] | MIC ([7]; read-out: MIC.) [µg/mL] | MIC [1] [µg/mL] | MIC [2] [µg/mL] | MIC (Proteus vulgaris GN 76) [µg/mL] | MIC [3] [µg/mL] | MIC [4] [µg/mL] | MIC [5] [µg/mL] | MIC (Proteus rettgeri GN 624) [µg/mL] | MIC [6] [µg/mL] | MIC (Proteus mirabilis GN 79) [µg/mL] | MIC [7] [µg/mL]
1 | CO/N=C(\C(=O)NC1C(=O)N2C(C(=O)O)=C(/C=C\c3sc(Cl)nc3Cl)CSC12)c1csc(N)n1 (stereo not drawn) [Example 34, 7-[2-methoxyimino-2-(2-aminothiazol-4-yl)acetamido]-3-[2-(2,4-dichlorothiazol-5-yl)vinyl]-3-cephem-4-carboxylic acid sodium salt (syn-isomer, cis-isomer)] | 100 | 0.2 | 1.56 | 3.13 | 3.13 | 3.13 | 1.56 | 1.56 | 0.78 | 0.2 |  |  |  |  |  |  |  |  |  | 
2 | Cc1ncsc1C=CC1=C(C(=O)O)N2C(=O)C(NC(=O)C(=NOCC(=O)O)c3csc(N)n3)C2SC1.O=C(O)C(F)(F)F (single isomer, unassigned) [Example 16, 7-[2-carboxymethoxyimino-2-(2-aminothiazol-4-yl)acetamido]-3-[2-(4-methylthiazol-5yl)vinyl]-3-cephem-4-carboxylic acid trifluoroacetate (syn-isomer, trans-isomer)] |  |  |  |  |  |  |  |  |  |  | 12.5 | 3.13 | ≤ 0.025 | 0.39 | 0.10 | 0.20 | 1.56 | 0.05 | 0.05 | 3.13
3 | CO/N=C(\C(=O)NC1C(=O)N2C(C(=O)O)=C(C=Cc3ccccc3F)CSC12)c1csc(N)n1 (mixture of isomers) [Example 14, 7-[2-methoxyimino-2-(2-aminothiazol-4-yl)acetamido]-3-[2-(o-fluorophenyl)vinyl]-3-cephem-4-carboxylic acid trifluoroacetate (syn-isomer, mixed cis- and trans-isomers)] | > 50 | 0.2 | 0.2 | 3.13 | 3.13 | 3.13 | 1.56 | 1.56 | 0.2 | 0.39 |  |  |  |  |  |  |  |  |  | 
4 | CO/N=C(\C(=O)NC1C(=O)N2C(C(=O)O)=C(/C=C\c3cscn3)CSC12)c1csc(N)n1 (stereo not drawn) [Example 32, 7-[2-methoxyimino-2-(2-aminothiazol-4-yl)acetamido]-3-[2-(thiazol-4-yl)vinyl]-3-cephem-4-carboxylic acid sodium salt (syn-isomer, cis-isomer)] | 100 | 0.39 | 0.1 | 1.56 | 0.78 | 1.56 | 6.25 | 0.78 |  | 0.78 |  |  |  |  |  |  |  |  |  | 
5 | CO/N=C(\C(=O)NC1C(=O)N2C(C(=O)O)=C(/C=C\c3cncs3)CSC12)c1csc(N)n1 (stereo not drawn) [Example 33, 7-[2-methoxyimino-2-(2-aminothiazol-4-yl)acetamido]-3-[2-(thiazol-5-yl)vinyl]-3-cephem-4-carboxylic acid sodium salt (syn-isomer, cis-isomer)] | 25 | 0.39 | 0.1 | 0.39 | 0.39 | 0.2 | 0.78 | 0.39 | 0.39 | 0.39 |  |  |  |  |  |  |  |  |  | 
6 | CO/N=C(\C(=O)NC1C(=O)N2C(C(=O)O)=C(/C=C\c3ccco3)CSC12)c1csc(N)n1 (stereo not drawn) [Example 12, 7-[2-methoxyimino-2-(2-aminothiazol-4-yl)acetamido]-3-[2-(2-furyl)vinyl]-3-cephem-4-carboxylic acid sodium salt (cyn-isomer, cis-isomer)] | > 50 | 0.39 | 0.39 | 3.13 | 1.56 | 1.56 | 3.13 | 1.56 | 0.78 | 0.78 |  |  |  |  |  |  |  |  |  | 
7 | CO/N=C(\C(=O)NC1C(=O)N2C(C(=O)O)=C(/C=C\c3cnc(C)s3)CSC12)c1csc(N)n1 (stereo not drawn) [Example 31, 7-[2-methoxyimino-2-(2-aminothiazol-4-yl)acetamido]-3-[2-(2-methylthiazol-5-yl)vinyl]-3-cephem-4-carboxylic acid trifluoroacetate (syn-isomer, cis-isomer)] | > 50 | 0.78 | 0.2 | 1.56 | 1.56 | 1.56 | 0.78 | 0.78 | 0.78 | 1.56 |  |  |  |  |  |  |  |  |  | 
8 | CO/N=C(\C(=O)NC1C(=O)N2C(C(=O)O)=C(/C=C\c3ccccc3)CSC12)c1csc(N)n1 (stereo not drawn) [Example 11, 7-[2-methoxyimino-2-(2-aminothiazol-4-yl)acetamido]-3-(2-phenylvinyl)-3-cephem-4-carboxylic acid trifluoroacetate (cyn-isomer, cis-isomer)] | > 50 | 0.78 | 0.78 | 3.13 | 6.25 | 3.13 | 3.13 | 1.56 | 0.78 | 0.78 |  |  |  |  |  |  |  |  |  | 
9 | CO/N=C(\C(=O)NC1C(=O)N2C(C(=O)O)=C(/C=C\c3scnc3Cl)CSC12)c1csc(N)n1 (stereo not drawn) [Example 21, 7-[2-methoxyimino-2-(2-aminothiazol-4-yl)acetamido]-3-[2-(4-chlorothiazol-5-yl)vinyl]-3-cephem-4-carboxylic acid (syn-isomer, cis-isomer) sodium salt] | 12.5 | 0.1 | 0.1 | 0.2 | 0.2 | 0.1 | 1.56 | 0.2 | 0.2 | 0.2 |  |  |  |  |  |  |  |  |  | 
10 | CO/N=C(\C(=O)NC1C(=O)N2C(C(=O)O)=C(C=Cc3sc[n+](C)c3C)CSC12)c1csc(N)n1 (stereo not drawn) [Example 15, 7-[2-methoxyimino-2-(2-aminothiazol-4-yl)acetamido]-3-[2-(3,4-dimethyl-5-thiazolio)vinyl]-3-cephem-4-carboxylic acid di-trifluoroacetate (syn-isomer)] | > 50 | 0.78 | 0.39 | 0.1 | 0.1 | 0.1 | 0.39 | 0.1 | 0.78 | 0.78 |  |  |  |  |  |  |  |  |  | 
11 | CO/N=C(\C(=O)NC1C(=O)N2C(C(=O)O)=C(/C=C/c3cnc(C)s3)CSC12)c1csc(N)n1 (stereo not drawn) [Example 30, 7-[2-methoxyimino-2-(2-aminothiazol-4-yl)acetamido]-3-[2-(2-methylthiazol-5-yl)vinyl]-3-cephem-4-carboxylic acid trifluoroacetate (syn-isomer, trans-isomer)] | > 50 | 0.78 | 0.1 | 0.78 | 0.39 | 0.78 | 0.2 | 0.2 | 0.2 | 1.56 |  |  |  |  |  |  |  |  |  | 
12 | CO/N=C(\C(=O)NC1C(=O)N2C(C(=O)O)=C(/C=C/c3scnc3C)CSC12)c1csc(N)n1 (stereo not drawn) [Example 18, 7-[2-methoxyimino-2-(2-aminothiazol-4-yl)acetamido-3-[2-(4-methylthiazol-5-yl)vinyl]-3cephem-4-carboxylic acid sodium salt (syn-isomer, trans-isomer)] | 50 | 0.39 | 0.1 | 0.78 | 0.78 | 0.39 | 0.39 | 0.39 |  | 0.39 |  |  |  |  |  |  |  |  |  | 
13 | CO/N=C(\C(=O)NC1C(=O)N2C(C(=O)O)=C(/C=C/c3ccc([N+](=O)[O-])o3)CSC12)c1csc(N)n1 (stereo not drawn) [Example 13, 7-[2-methoxyimino-2-(2-aminothiazol-4-yl)acetamido]-3-[2-(5-nitor-2-furyl)vinyl]-3-cephem-4-carboxylic acid sodium salt (syn-isomer, trans-isomer)] | > 50 | 6.25 | 3.13 | 6.25 | 6.25 | 3.13 | 3.13 | 6.25 | 12.5 | 6.25 |  |  |  |  |  |  |  |  |  | 
